Experimental data taken from PubChem BioAssay AID2060354 (Molecular Pharmacology Branch, DTP, NCI, 2025).

Tested on: 519858-162-T-J1-PDC spheroid growth inhibition
Assay: Anticancer human tumor 519858-162-T-J1-PDC patient-derived colon adenocarcinoma cell line growth inhibition [TAK]
Details: spheroids with HUVEC and MSC; for IC50: curve of first compound; for viability, T/C: stronger effect = lower value
Outline: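 Spheroids of 60% malignant cells, 25% HUVEC and 15% hMSC were exposed to targeted agents combined with TAK-243 or ipatasertib. Concentrations started at or near clinical Cmax (10 microM if unknown) and descended in half-log steps.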

[1] = second compound 0.3 µM, first compound 0.0316 µM
[2] = second compound 0.3 µM, first compound 0.1 µM
[3] = second compound 0.3 µM, first compound 0.316 µM
[4] = second compound 0.3 µM, first compound 1 µM
[5] = second compound 0.949 µM, first compound 0.0316 µM
[6] = second compound 0.949 µM, first compound 0.1 µM
[7] = second compound 0.949 µM, first compound 0.316 µM
[8] = second compound 0.949 µM, first compound 1 µM
[9] = second compound 3 µM, first compound 0.0316 µM
[10] = second compound 3 µM, first compound 0.1 µM
[11] = second compound 3 µM, first compound 0.316 µM
[12] = second compound 3 µM, first compound 1 µM
[13] = second compound 9.49 µM, first compound 0.0316 µM
[14] = second compound 9.49 µM, first compound 0.1 µM
[15] = second compound 9.49 µM, first compound 0.316 µM
[16] = second compound 9.49 µM, first compound 1 µM
[17] = second compound 30 µM, first compound 0.0316 µM
[18] = second compound 30 µM, first compound 0.1 µM
[19] = second compound 30 µM, first compound 0.316 µM
[20] = second compound 30 µM, first compound 1 µM
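Also: spheroids exposed to drugs for 7 days.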

Structure (SMILES) | IC50 (second compound 0.3 µM) | IC50 (second compound 0.949 µM) | IC50 (second compound 3 µM) | IC50 (second compound 9.49 µM) | IC50 (second compound 30 µM) | viability, T/C [1] | viability, T/C [2] | viability, T/C [3] | viability, T/C [4] | viability, T/C [5] | viability, T/C [6] | viability, T/C [7] | viability, T/C [8] | viability, T/C [9] | viability, T/C [10] | viability, T/C [11] | viability, T/C [12] | viability, T/C [13] | viability, T/C [14] | viability, T/C [15] | further results
COc1c(OCCCN2CCOCC2)ccc2c3n(c(=NC(=O)c4cnc(N)nc4)nc12)CCN3 + CC(C)NCC(C(=O)N1CCN(c2ncnc3c2C(C)CC3O)CC1)c1ccc(Cl)cc1 | 269 nM | 391 nM | > 1000 nM | > 1000 nM | 276 nM | 65% | 57.2% | 49.5% | 42.5% | 73.8% | 62.2% | 56.2% | 31.9% | 68.1% | 61.5% | 51% | 50.1% | 72% | 62.1% | 60.5% | viability, T/C (second compound 0.3 µM, first compound 0.00316 µM): 87.3%; viability, T/C (second compound 0.3 µM, first compound 0.01 µM): 78.4%; viability, T/C (second compound 0.949 µM, first compound 0.00316 µM): 76.6%; viability, T/C (second compound 0.949 µM, first compound 0.01 µM): 75.1%; viability, T/C (second compound 3 µM, first compound 0.00316 µM): 97.7%; viability, T/C (second compound 3 µM, first compound 0.01 µM): 71.4%; viability, T/C (second compound 9.49 µM, first compound 0.00316 µM): 83.5%; viability, T/C (second compound 9.49 µM, first compound 0.01 µM): 87.2%; viability, T/C [16]: 56.4%; viability, T/C (second compound 30 µM, first compound 0.00316 µM): 93.6%; viability, T/C (second compound 30 µM, first compound 0.01 µM): 77.6%; viability, T/C [17]: 73.6%; viability, T/C [18]: 59.1%; viability, T/C [19]: 43%; viability, T/C [20]: 47.8%
Cc1nc(NC(=O)N2CCCC2C(N)=O)sc1-c1ccnc(C(C)(C)C(F)(F)F)c1 (stereo not given) + CC(C)NCC(C(=O)N1CCN(c2ncnc3c2C(C)CC3O)CC1)c1ccc(Cl)cc1 | > 10000 nM | > 10000 nM | > 10000 nM | > 10000 nM | > 10000 nM | 110% | 88.2% | 81% | 81.7% | 85.3% | 94.8% | 104% | 79.9% | 80% | 77.5% | 76.9% | 75.1% | 85.6% | 74.2% | 81.4% | viability, T/C (second compound 0.3 µM, first compound 3.16 µM): 68.5%; viability, T/C (second compound 0.3 µM, first compound 10 µM): 52.8%; viability, T/C (second compound 0.949 µM, first compound 3.16 µM): 86.9%; viability, T/C (second compound 0.949 µM, first compound 10 µM): 66.2%; viability, T/C (second compound 3 µM, first compound 3.16 µM): 80.5%; viability, T/C (second compound 3 µM, first compound 10 µM): 65.7%; viability, T/C [16]: 74.4%; viability, T/C (second compound 9.49 µM, first compound 3.16 µM): 71.2%; viability, T/C (second compound 9.49 µM, first compound 10 µM): 62.7%; viability, T/C [17]: 94.6%; viability, T/C [18]: 82%; viability, T/C [19]: 91.5%; viability, T/C [20]: 80.2%; viability, T/C (second compound 30 µM, first compound 3.16 µM): 72.4%; viability, T/C (second compound 30 µM, first compound 10 µM): 72.2%
